Source: US9957236B2, “Selective inhibitors interfering with fibroblast growth factor receptor and FRS2 interaction for the prevention and treatment of cancer and other diseases” (LIMITED LIABILITY COMPANY “RUSSIAN PHARMACEUTICAL …, priority 2014, dated 2018)

Assays:
[1] = system: human ovarian cancer SKOV-3; experiment: Pathomorphosis of SKOV-3 ovarian tumor in nude mice; format: in vivo; settings: SKOV-3 in nude mice
Method: Immunodefficient mice (Nude, age of the mice as of the treatment start is 8 weeks; nursery “Pushchino”) were subcutaneously inoculated cells of FGFR2 of expressing line of human ovarian cancer SKOV-3. When the average tumor volume of 200 mm3 was achieved, the mice were randomized into the groups of control (standard chemotherapy with paclitaxel and caroplatin) and treatment (inhibitor RPT835). There were 10 mice in each group. Inhibitor RPT835 was assigned in a dose of 50 mg/kg, daily. The tumor volume was measured twice a week. When the tumor volume reached 2,000 mm3, the mice were subjected to euthanasia. Pathomorphosis of the tumor tissue was studied.

[2] = target: T1, FGFR1 (Homo sapiens, UniProt P11362); experiment: FGFR1 phosphorylation in breast cancer cells MDA MB 134; format: cell-based; settings: MDA MB 134 cells
T1 construct: endogenous in cells; host or cells: HUVEC, Caki-1, KATO III
T1 sequence (P11362 22-822): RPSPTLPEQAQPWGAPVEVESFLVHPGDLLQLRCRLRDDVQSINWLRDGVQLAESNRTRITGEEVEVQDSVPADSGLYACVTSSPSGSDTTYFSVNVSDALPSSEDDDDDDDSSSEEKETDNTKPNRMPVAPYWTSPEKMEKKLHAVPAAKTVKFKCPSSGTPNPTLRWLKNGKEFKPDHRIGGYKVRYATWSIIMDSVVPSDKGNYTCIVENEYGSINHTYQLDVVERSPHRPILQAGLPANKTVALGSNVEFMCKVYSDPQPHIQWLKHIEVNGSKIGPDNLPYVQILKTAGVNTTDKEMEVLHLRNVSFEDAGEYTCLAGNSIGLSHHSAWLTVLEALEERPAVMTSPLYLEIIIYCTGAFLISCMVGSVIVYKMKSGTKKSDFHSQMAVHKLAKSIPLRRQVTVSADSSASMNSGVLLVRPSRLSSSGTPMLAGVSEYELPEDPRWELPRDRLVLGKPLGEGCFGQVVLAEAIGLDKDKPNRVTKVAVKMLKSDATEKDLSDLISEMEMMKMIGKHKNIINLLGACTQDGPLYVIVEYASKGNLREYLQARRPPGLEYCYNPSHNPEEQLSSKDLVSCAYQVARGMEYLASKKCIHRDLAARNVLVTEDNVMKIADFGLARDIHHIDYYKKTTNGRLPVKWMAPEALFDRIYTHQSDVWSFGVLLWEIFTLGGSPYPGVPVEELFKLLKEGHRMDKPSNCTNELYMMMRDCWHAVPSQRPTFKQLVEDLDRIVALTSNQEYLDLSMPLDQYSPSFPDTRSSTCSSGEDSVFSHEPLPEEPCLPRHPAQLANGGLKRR
Description: The purpose of this research was assessment of specific action of inhibitor RPT835 specified in this invention with formula II, on interaction of […] and FRS2 and assessment of influence on interaction of other types of FGFR and FRS2. For the experiment, 2 cell lines were selected: • stomach cancer KATO III, expressing FGFR2, and • breast cancer MDA MB 134, expressing FGFR1.
The research procedure was the same as in the previous examples: the cells were cultivated in presence of RPT835 followed by stimulation with FGF-2 and heparin. The other part of the cells was cultivated in presence of RPT835. Phosphorylation of FGFR1 (in breast cancer cells) and FGFR2 (in stomach cancer cells), and also FRS2a (in the both cell lines) and some intracellular kinases (in breast cancer cells) was assessed using manual and automated Western blotting.

[3] = target: T2, FRS2α (Homo sapiens, UniProt Q8WU20); experiment: FRS2α phosphorylation in hFOB cells (Western blotting); format: cell-based; set-up: endogenous in cells; host or cells: hFOB; settings: hFOB (FGFR2 IIIc), RPT835 1 micron, FGF-1 100 ng/ml
T2 sequence (Q8WU20 1-508): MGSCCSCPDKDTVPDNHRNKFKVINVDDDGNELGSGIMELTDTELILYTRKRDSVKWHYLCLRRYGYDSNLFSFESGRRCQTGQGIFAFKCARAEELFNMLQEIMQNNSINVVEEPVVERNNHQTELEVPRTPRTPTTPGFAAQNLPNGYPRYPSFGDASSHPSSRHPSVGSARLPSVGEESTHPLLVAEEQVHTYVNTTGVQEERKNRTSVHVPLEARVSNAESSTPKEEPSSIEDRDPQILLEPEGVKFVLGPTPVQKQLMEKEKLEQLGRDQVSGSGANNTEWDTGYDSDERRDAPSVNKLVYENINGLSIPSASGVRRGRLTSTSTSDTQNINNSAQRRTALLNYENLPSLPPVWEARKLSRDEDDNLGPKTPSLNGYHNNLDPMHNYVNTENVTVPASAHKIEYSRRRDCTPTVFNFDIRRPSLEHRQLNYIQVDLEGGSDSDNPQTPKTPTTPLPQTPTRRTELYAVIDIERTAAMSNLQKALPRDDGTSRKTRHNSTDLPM
Method: (§1) The research assessed the influence of inhibitor RPT835 determined by formula II of this invention, intervention with interaction of FGFR2 represented by two most frequent isoforms IIIb and IIIc with FRS2. For this, human cell line of embryonal osteoblasts (hFOB) expressing only FGFR2 […], and human cell line of breast cancer SUM-52 expressing FGFR2 IIIb (all main versions of isoform—C1, C2, C3) were chosen.
(§2) Cells were divided into the groups: • 1a) hFOB • 1b) hFOB, stimulating FGF-1 (100 ng/ml) • 1c) hFOB, cultivation with RPT835 (1 micron) and stimulation of FGF-1 (100 ng/ml) • 2a) SUM-52 • 2b) SUM-52, stimulation of FGF-1 (100 ng/ml) • 2c) SUM-52, cultivation with RPT835 (1 micron) and stimulation of FGF-1 (100 ng/ml)

[4] = target: T3, FGFR2-Fc (Homo sapiens, UniProt P21802); experiment: Enzyme linked FGF2 binding assay with FGFR2-Fc; settings: concentrations of 1 to 1000 nM, FGF-2 + heparin
T3 construct: consisted of human extracellular domain FGFR2α (Inc) and Fc-fragment of human IgG1
T3 sequence (P21802 22-377 limits assumed): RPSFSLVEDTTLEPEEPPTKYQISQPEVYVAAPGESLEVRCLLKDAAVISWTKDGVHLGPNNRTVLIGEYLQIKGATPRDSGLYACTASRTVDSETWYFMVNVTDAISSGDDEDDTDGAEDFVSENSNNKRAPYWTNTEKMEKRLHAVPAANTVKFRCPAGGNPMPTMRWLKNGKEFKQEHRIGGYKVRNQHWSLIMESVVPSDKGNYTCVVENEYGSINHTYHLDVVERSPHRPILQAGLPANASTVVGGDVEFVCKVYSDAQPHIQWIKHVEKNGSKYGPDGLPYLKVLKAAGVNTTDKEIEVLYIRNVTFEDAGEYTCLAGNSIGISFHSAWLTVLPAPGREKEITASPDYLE
Method: Non-radioactive enzyme linked FGF2 binding assay was performed in order to assess if RPT835 influences on binding of FGFR2 and ligand (FGF-2). Recombinant chimeric protein FGFR2-Fc, which consisted of human extracellular domain FGFR2α (Inc) and Fc-fragment of human IgG1 was used in the binding assay of FGF-2. FGFR2α contained all the 3 immunoglobulin-like domains and represented domain IIIc FGFR2 with high affinity to FGF-2. A 96-cavity plate tablet was covered with FGFR2-Fc protein, and then the following was added into the cavities:
3) inhibitor RPT835 in various concentrations+FGF-2+heparin
4) a part of the cavities remained without stimulators (FGF-2+heparin) and RPT835 (negative control).
After incubation, enzyme-linked immunoassay was carried out using the corresponding antibodies and subsequent determination of OD650 (optic density with wavelength of 650 nm).

[5] = Acute toxicity; format: in vivo; settings: acute administration
Description: Besides, acute toxicity of inhibitor RPT835 was studied in the following volume in a separate research: • Acute toxicity of the medicine was researched. […] The state of the animals after acute administration testifies of good tolerability of the medicine in doses exceeding the maximal therapeutic ones (about 4.3 mcg/kg) tens—hundreds of times.

[6] = target: T2, FRS2α; experiment: FRS2α phosphorylation in SUM-52 cells (Western blotting); format: cell-based; set-up: endogenous in cells; host or cells: hFOB; settings: SUM-52 (FGFR2 IIIb), RPT835 1 micron, FGF-1 100 ng/ml
Method: as §1, §2

Q: Which results are given for `Cc1cc([N+](=O)[O-])c(NS(=O)(=O)c2cccc(C(=O)O)c2)cc1-c1cccnc1` [RPT835, 3-(N-(4-methyl-2-nitro-5-(pyridin-3-yl)phenyl)sulfamoyl)benzoic acid]?
A: part of the tumor represented by massive necroses ([1]; 50 mg/kg daily): over 75%; pathomorphosis of the tumor tissue ([1]; RPT835 50 mg/kg daily, control standard chemotherapy with paclitaxel and caroplatin): Pronounced therapeutic pathomorphosis; phosphorylation of FGFR1 [2]: did not have influence; FRS2α phosphorylation level [3]: completely suppressed the phosphorylation; binding of FGF-2 and FGFR2-Fc [4]: did not influence on binding of ligand with the receptor; toxicity class (Hodge; Sidorov) ([5]; 14 days observation, necropsy): IV class of low toxicity; LD50 at 14 days ([5]; in vivo, read-out: Median lethal dose (LD50)): > 2000 mg/kg; FRS2α phosphorylation level [6]: completely suppressed the phosphorylation
